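Compound exposure: 48 hours, 5 concentrations, 96-well plates. TGI marks complete inhibition of growth.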
Columns and labels:
Experiment in all cases: NCI-60 cell line screen, 48 h
UO-31 renal = test system: UO-31 renal
RXF 393 renal = test system: RXF 393 renal
PC-3 prostate = test system: PC-3 prostate
TK-10 renal = test system: TK-10 renal
HOP-62 NSCLC = test system: HOP-62 NSCLC
HCT-15 colon = test system: HCT-15 colon
M14 melanoma = test system: M14 melanoma
COLO 205 colon = test system: COLO 205 colon
NCI-H522 lung = test system: NCI-H522 lung
NCI-H23 lung = test system: NCI-H23 lung
SF-268 CNS = test system: SF-268 CNS
SF-539 CNS = test system: SF-539 CNS

Cc1nc2ccccc2n1Cc1ccc(NC(=S)NC2CCCCC2)cc1
TGI (UO-31 renal): > 100 µM | TGI (RXF 393 renal): > 100 µM | TGI (PC-3 prostate): > 100 µM | TGI (TK-10 renal): > 100 µM | TGI (HOP-62 NSCLC): > 100 µM | TGI (HCT-15 colon): > 100 µM | TGI (M14 melanoma): > 100 µM | TGI (COLO 205 colon): > 100 µM | TGI (NCI-H522 lung): > 100 µM | TGI (NCI-H23 lung): > 100 µM | TGI (SF-268 CNS): > 100 µM | TGI (SF-539 CNS): > 100 µM

O=C1OCC(CN2CCC(n3c(=O)[nH]c4ccccc43)CC2)=C1c1ccccc1
TGI (UO-31 renal): 35.2 µM | TGI (RXF 393 renal): > 100 µM | TGI (PC-3 prostate): 41.6 µM | TGI (TK-10 renal): 63.1 µM | TGI (HOP-62 NSCLC): 64.5 µM | TGI (HCT-15 colon): 54.9 µM | TGI (M14 melanoma): 33.4 µM | TGI (COLO 205 colon): 28.1 µM | TGI (NCI-H522 lung): 46.5 µM | TGI (NCI-H23 lung): 52.2 µM | TGI (SF-268 CNS): 95.5 µM | TGI (SF-539 CNS): 35.6 µM

C=CCOC1=C(OC(C)=O)C(C2COC(C)(C)O2)OC1=O (stereo not drawn)
TGI (UO-31 renal): 33 µM | TGI (RXF 393 renal): 46.3 µM | TGI (PC-3 prostate): > 100 µM | TGI (TK-10 renal): 68.7 µM | TGI (HOP-62 NSCLC): > 100 µM | TGI (HCT-15 colon): 29.8 µM | TGI (M14 melanoma): 53.8 µM | TGI (COLO 205 colon): 36.9 µM | TGI (NCI-H522 lung): 5.45 µM | TGI (NCI-H23 lung): 35 µM | TGI (SF-268 CNS): > 100 µM | TGI (SF-539 CNS): > 100 µM

CC(=O)Oc1ccc(C2SCc3nc4ccccc4n32)cc1 (stereo not drawn)
TGI (UO-31 renal): > 61.5 µM | TGI (RXF 393 renal): 77.3 µM | TGI (PC-3 prostate): > 100 µM | TGI (TK-10 renal): > 100 µM | TGI (HOP-62 NSCLC): > 100 µM | TGI (HCT-15 colon): > 100 µM | TGI (M14 melanoma): > 100 µM | TGI (COLO 205 colon): 56.3 µM | TGI (NCI-H522 lung): 69.2 µM | TGI (NCI-H23 lung): > 100 µM | TGI (SF-268 CNS): 70.8 µM | TGI (SF-539 CNS): > 100 µM
